Experimental data reported in US8435960B2, “Devices for improved wound management” (Lakewood-Amedex, Inc., priority 1998, dated 2013).
Strand notation (5' to 3'): a small letter for the sugar, then the base; units joined by * are phosphorothioate-linked, units joined directly phosphodiester-linked; [ ] holds rarer units or linkages, { } end groups; capitals alone tell only the bases. [invdT] = inverted (3'-3') thymidine; {BuOH} = butanol end-blocking group; m = 2'-O-methyl

What was measured:
[1] = tested on: Strep. mutans; experiment: Stationary growth assay, Strep. mutans; type: cell-based; settings: 16 A260 units; for CFU/ml: Strep. mutans 10^7 CFU/ml start; for Inhibition (%): Strep. mutans, approx. 24 hours
[2] = tested on: Pseudomonas aeruginosa (Strain Utah 4); experiment: Burn wound infection model, subcutaneous (systemic) infection; type: in vivo, BALB/c female mice
[3] = tested on: Pseudomonas aeruginosa (Strain Utah 4); experiment: Burn wound infection model, topical infection and topical treatment; type: in vivo, BALB/c female mice; settings: for % Survival / No. Survivors/Total: topical infection, topical treatment
[4] = tested on: S. aureus ACC # 13301; experiment: Limited nutrient growth study, S. aureus; type: cell-based; settings: approx. 24 hours; for Inhibition (%): oligonucleotide pH 1.5, 32 A260 units
[5] = tested on: P. aeruginosa ACC # 10145; experiment: Limited nutrient growth study, P. aeruginosa; type: cell-based; settings: approx. 24 hours; for Inhibition (%): oligonucleotide pH 1.5, 32 A260 units
[6] = tested on: S. aureus; experiment: Stationary growth assay, S. aureus; type: cell-based; settings: S. aureus 10^7 CFU/ml start, 32 A260 units
[7] = tested on: Staphylococcal furuncle; experiment: Treatment of Staphylococcal furuncle in a human subject; type: in vivo
[8] = tested on: Pseudomonas aeruginosa; experiment: Topical treatment of outer ear infections in chinchillas; type: in vivo
[9] = tested on: Strep. pyogenes; experiment: Treatment of Strep. pyogenes skin infection on a dog; type: in vivo; settings: cut on abdomen, Neosporin for 3 days, nucleic acid pH 1.5, two treatments separated by 12 hours
[10] = tested on: Pseudomonas aeruginosa; experiment: Topical Pseudomonas burn model of infection in immuno-compromised mice (Example 9); type: in vivo; settings: topical treatment at 4 hrs. and 8 hrs. post infection, pH 1.5
[11] = tested on: Pseudomonas aeruginosa; experiment: Systemic Pseudomonas burn model of infection (Example 9); type: in vivo, mice
[12] = topical treatment 1800 A/ml, individual mice # 1-3, NG = no growth
[13] = mice, burn wound infection with 5 LD50 P. aeruginosa, summary of all studies
[14] = pH of nucleic acid 3, 32 A260 units
[15] = pH of nucleic acid 4, 32 A260 units
[16] = pH of nucleic acid 5, 32 A260 units
[17] = pH of nucleic acid 7, 32 A260 units
[18] = after 16 hours from the initial treatment

114.6: 2′-O-methyl substituted ribonucleotides phosphodiester linked with 5′ and 3′ inverted T end-blocking, sequence CGCCAT
CFU/ml ([1]; pH 3): 0 CFU/ml | CFU/ml ([1]; pH 7): 10^7 CFU/ml | Inhibition (%) ([1]; pH 3): 100% | Inhibition (%) ([1]; pH 7): 0%

114.21: 2′-O-methyl substituted ribonucleotides phosphodiester linked with 5′ and 3′ inverted T end-blocking, sequence GGAACGCGCCATTGGTATATC (all 2'-O-methyl, all phosphodiester, 5' [invdT], 3' [invdT], T or U not given here)
CFU/ml ([1]; pH 3): 0 CFU/ml | CFU/ml ([1]; pH 7): 10^7 CFU/ml | Inhibition (%) ([1]; pH 3): 100% | Inhibition (%) ([1]; pH 7): 0%

CO[C@@H]1[C@H](O)[C@@H](COP(=O)(O)O)O[C@H]1n1ccc(=O)[nH]c1=O [compound 6, 2′-O-methyl Uridine monophosphate]
# Survivors/Total Animals Tested ([2]; mouse, in vivo): 0/5 | % Survival ([2]; mouse, in vivo): 0% | therapeutic activity ([2]; mouse, in vivo): did not appear to show any therapeutic activity

HO—CH2CH2CH2CH2-ACg•CgC•CAU•Ugg-CH2CH2CH2CH2—OH [B2]
# Survivors/Total Animals Tested ([2]; mouse, in vivo): 28/30 | No. Survivors/Total Animals ([2]; mouse, in vivo): 5/5 | survival rate ([2]; mouse, in vivo): 100% | survival rate (efficacy) ([2]; mouse, in vivo, iv): 80% | survival rate (efficacy) ([2]; mouse, in vivo, sc): 40% | % Survival ([3]; concentration 335 A/ml): 40% | No. Survivors/Total ([3]; concentration 335 A/ml): 2/5 | % Survival ([3]; concentration 1800 A/ml): 90% | No. Survivors/Total ([3]; concentration 1800 A/ml): 9/10 | Microbiological quantitation of tissues, Blood [3, 12]: devoid of any detectable CFUs | Microbiological quantitation of tissues, Livers [3, 12]: two out of three | Microbiological quantitation of tissues, Spleens [3, 12]: devoid of any detectable CFUs

HO—CH2CH2CH2CH2-ACg•CgC•CAU•Ugg-CH2CH2CH2CH2—OH [B7]
# Survivors/Total Animals Tested ([2]; mouse, in vivo): 2/5 | % Survival ([2]; mouse, in vivo): 40% | % Survival ([3]; concentration 1800 A/ml): 40% | No. Survivors/Total ([3]; concentration 1800 A/ml): 2/5

HO—CH2CH2CH2CH2-AUG-CH2CH2CH2CH2—OH [compound 2]
# Survivors/Total Animals Tested ([2]; mouse, in vivo): 3/5 | % Survival ([2]; mouse, in vivo): 60%

HO—CH2CH2CH2CH2-CgC•CAU—CH2CH2CH2CH2—OH [compound 7]
# Survivors/Total Animals Tested ([2]; mouse, in vivo): 2/5 | % Survival ([2]; mouse, in vivo): 40%

HO—CH2CH2CH2CH2-G-CH2CH2CH2CH2—OH [compound 3]
# Survivors/Total Animals Tested [2, 13]: 3/5 | % Survival [2, 13]: 60%

HO—CH2CH2CH2CH2-GGG-CH2CH2CH2CH2—OH [compound 5]
# Survivors/Total Animals Tested ([2]; mouse, in vivo): 3/5 | % Survival ([2]; mouse, in vivo): 60%

HO—CH2CH2CH2CH2—UUU—CH2CH2CH2CH2—OH [compound 4]
# Survivors/Total Animals Tested ([2]; mouse, in vivo): 2/5 | % Survival ([2]; mouse, in vivo): 40%

Homopolymer, 12 A: AAAAAAAAAAAA, 2′-O-methyl substituted ribonucleotides phosphodiester linked, 3′ and 5′ butanol end-blocking ({BuOH}-mAmAmAmAmAmAmAmAmAmAmAmA-{BuOH})
Inhibition (%) [4]: 100% | Inhibition (%) [5]: 100%

Homopolymer, 12 C: CCCCCCCCCCCC, 2′-O-methyl substituted ribonucleotides phosphodiester linked, 3′ and 5′ butanol end-blocking ({BuOH}-mCmCmCmCmCmCmCmCmCmCmCmC-{BuOH})
Inhibition (%) [4]: 100% | Inhibition (%) [5]: 100%

Homopolymer, 12 G: GGGGGGGGGGGG, 2′-O-methyl substituted ribonucleotides phosphodiester linked, 3′ and 5′ butanol end-blocking ({BuOH}-mGmGmGmGmGmGmGmGmGmGmGmG-{BuOH})
Inhibition (%) [4]: 100% | Inhibition (%) [5]: 100%

Homopolymer, 12 U: UUUUUUUUUUUU, 2′-O-methyl substituted ribonucleotides phosphodiester linked, 3′ and 5′ butanol end-blocking (2'-O-methyl; butanol end caps)
Inhibition (%) [4]: 100% | Inhibition (%) [5]: 100%

SEQ ID NO: 1: 2′-O-methyl ribonucleotides, phosphodiester linkage, 5′ and 3′ inverted T end-blocked, sequence CGCCATTGG (all 2'-O-methyl, all phosphodiester, 5' [invdT], 3' [invdT], T or U not given here)
Inhibition of Growth (%) ([4]; pH of nucleic acid 2, 32 A260 units, A625): 100% | Inhibition of Growth (%) [4, 14]: 100% | Inhibition of Growth (%) [4, 15]: 100% | Inhibition of Growth (%) [4, 16]: 16% | Inhibition of Growth (%) [4, 17]: 0% | Inhibition of Growth (%) ([5]; pH of nucleic acid 2, 32 A260 units): 100% | Inhibition of Growth (%) [5, 14]: 100% | Inhibition of Growth (%) [5, 15]: 100% | Inhibition of Growth (%) [5, 16]: 0% | Inhibition of Growth (%) [5, 17]: 0% | CFU/ml ([6]; pH of nucleic acid 2, approx. 24 hours): 0 CFU/ml | CFU/ml ([6]; pH of nucleic acid 3): 10^3 CFU/ml | CFU/ml ([6]; pH of nucleic acid 4): 10^6 CFU/ml | CFU/ml ([6]; pH of nucleic acid 5): 10^7 CFU/ml | CFU/ml ([6]; pH of nucleic acid 7): 10^7 CFU/ml

SEQ ID NO: 9: ACGCGCCATTAT, 2′-O-methyl substituted ribonucleotides, phosphodiester linked, end blocked with an inverted T at both the 5′ and 3′ ends (all 2'-O-methyl, all phosphodiester, 5' [invdT], 3' [invdT], T or U not given here)
furuncle size ([7]; 1.5 cm furuncle, after 8 hours of treatment, 100 μl, 18.9 mMolar in water, pH 1.5): approximately 0.5 cm | size of remaining pinkish area of the furuncle [7, 18]: < 0.5 cm | swelling, pain, inflammation of furuncle [7, 18]: virtually no swelling, pain, or inflammation | effectiveness in vehicle mixture (water/ethanol/propylene glycol) compared with water ([8]; otoscopic examination, 2 mMolar in vehicle mixture vs 2.8 mMolar in water): slightly more effective | outcome of ear infections by otoscopic examination ([8]; two daily topical applications, pH 1.5, by day 7 post infection (4 days after treatment began)): completely cured | outcome of Strep. pyogenes skin infection [9]: completely cleared up the infection, swelling, inflammation, and sensitivity to touch | survival of treated animals ([10]; cyclophosphamide-treated mice, 10^9 CFU topically on burn): 100% | systemic Pseudomonas infection in treated animals [10]: free of systemic Pseudomonas infections | survival of treated mice ([11]; 10^6 or 10^7 CFU S.C. after burn, treatment I.V. (40% of dose) and S.C., 40 treated mice, pH 1.5): 100% | Pseudomonas bacteria in the spleen, liver, or blood ([11]; treated surviving mice sacrificed and checked for sepsis): not detected

dihydroxydibutyldiphophate 2′-O-methyl uridine [BUB]
# Survivors/Total Animals Tested ([2]; mouse, in vivo): 7/8 | % Survival ([2]; mouse, in vivo): 87.5%
